From US20220127576A1, “COMPOSITIONS AND METHODS FOR STEM CELL THERAPY” (Arizona Board of Regents on Behalf of the University of …, priority 2019, published 2022)
“Also recorded” adds a separate entry of the source.

Tests used:
[1] = test system: lymphocytes, lymphocyte subtypes and CD34+ HSCs in whole blood; experiment: Lymphocyte subtypes and CD34+ HSCs in whole blood at rest and during ISO infusion before and after G-CSF treatment; assay type: in vivo, human
Source text: Values are the mean (n=7; 3 females).
This graft phenotype is predictive of improved clinical outcomes post alloHSCT, including lower incidence/severity of GvHD and viral infections, better engraftment and a lower incidence of relapse (Table 1).

[2] = test system: leukemia and multiple myeloma target cells; experiment: In vitro anti-tumor (cytotoxic) activity of mobilized PBHC grafts; assay type: cell-based, human; settings: compared to rest / G-CSF only
Source text: Moreover, cytotoxic activity against leukemia and multiple myeloma target cells in vitro was 2-fold greater in the G-CSF+ISO PBHC grafts compared to G-CSF alone. […] Accordingly, in some embodiments, provided herein are compositions and methods for mobilizing stem cells with enhanced properties for use in allogenic or autologous transfers.
(§1) This was largely explained by a shift in the composition of NK-cells and TCR-γδ cells. […] The effects of systemic β-AR activation on the mobilization and ex vivo expansion of VSTs and TCR-γδ cells were β2-AR mediated as the effects were diminished by administering nadolol but not bisoprolol prior to systemic β-AR activation (FIG. 6).

[3] = Heart rate, blood pressure and tolerance during ISO infusion; assay type: in vivo, human; settings: ISO 50 ng/kg/min, before and after 5-days G-CSF (5 mcg/kg/day); n=3
Source text: Research Design: Scientific Rigor is maintained through the use of a randomized, complete cross-over, double blind placebo controlled experimental design (above table). This design allows participants to act as their own controls, thus minimizing variability and the impact of potential between-subject confounders. Healthy volunteers report to the lab on six separate occasions at the same time of day. During Visit 1, they undergo an extensive screening procedure to ensure that they meet the study inclusion/exclusion criteria. A blood sample is drawn to determine CMV serostatus (positive or negative) and MR haplotype (A or B), which is included as co-variates in the analysis. Participants then complete six trials on separate days (Visit 2-7) with 7-days interspersed between each trial. During each of these visits, subjects are infused with 50 ng/kg/min of ISO (5 visits) or saline (1 visit) for 30-minutes. Blood samples are drawn before and during the last 10-minutes of the 30-minute infusion protocol. Participants are given orally administered drugs or placebo as a single dose within a few hours prior to ISO infusion. Participants are assigned to trial order using a block randomization scheme with random block sizes of between 2 and 4 subjects to obtain a balanced sample of 8 subjects per trial sequence order (see Statistical Power and Analysis section below). The randomization list is used to create sealed envelopes that are opened to determine assignment to drug order group after visit 1, with the trial order blinded to both the investigators and the participants.

[4] = test system: lymphocytes, lymphocyte subtypes and CD34+ HSCs in whole blood; settings: ISO dose of 50 ng/kg/min, healthy subjects, literature; cited from earlier work
[5] = test system: lymphocytes, lymphocyte subtypes and CD34+ HSCs in whole blood; experiment: Lymphocyte subtypes and CD34+ HSCs in whole blood at rest and during ISO infusion before and after G-CSF treatment; assay type: in vivo, human; settings: for Absolute number of B cells in whole blood / Absolute number of CD3+ T cells in whole blood / Absolute number of CD4+ T cells in whole blood / Absolute number of CD8+ T cells in whole blood / Absolute number of CD34+ HSCs in whole blood / Absolute number of CM CD4+ T cells in whole blood / Absolute number of CM CD8+ T cells in whole blood / Absolute number of EM CD4+ T cells in whole blood / Absolute number of EM CD8+ T cells in whole blood / Absolute number of EMRA CD4+ T cells in whole blood / Absolute number of EMRA CD8+ T cells in whole blood / Absolute number of NK cells in whole blood / Absolute number of Naïve CD4+ T cells in whole blood / Absolute number of Naïve CD8+ T cells in whole blood / Absolute number of lymphocytes (Lymph.) in whole blood / Absolute number of αβ T cells in whole blood / Absolute number of γδ T cells in whole blood: mean, n = 3
[6] = ISO dose of 50 ng/kg/min, literature; cited from earlier work
[7] = test system: lymphocyte composition in blood; experiment: β-AR antagonists / PDE-4 inhibitor given prior to systemic β-AR activation (dynamic exercise): lymphocyte composition and heart rate; assay type: in vivo, human; settings: antagonist administered prior to systemic β-AR activation (dynamic exercise model)
Description: Baseline samples were collected before drug/placebo administration and again 3 h later (pre-exercise).
To determine the β-AR subtype involved, a selective β1-AR antagonist (bisoprolol) and non-selective β1+β2-AR antagonist (nadolol) were administered prior to systemic β-AR activation (using dynamic exercise as an experimental model).

[8] = test system: VSTs specific to CMV, EBV and adenovirus antigens; experiment: Mobilization of viral-specific T-cells (IFN-γ ELISpot and IFN-γ capture assays) with systemic β-AR activation; assay type: in vivo, human; settings: healthy humans (n=11)
Source text: Difference from the resting condition indicated by *, p<0.05. Difference from the placebo and bisoprolol trials indicated by #, p<0.05.

[9] = oral, literature; cited from earlier work
[10] = test system: VSTs and TCR-γδ cells; experiment: Mobilization and ex vivo expansion of VSTs and TCR-γδ cells after systemic β-AR activation; assay type: cell-based, human; settings: antagonist administered prior to systemic β-AR activation
Source text: as §1

[11] = ISO infusion 50 ng/kg/min, before and after 5-days G-CSF (5 mcg/kg/day), n=7
[12] = after G-CSF mobilization, healthy volunteers
[13] = Post G-CSF, during ISO infusion

Molecule: CC(C)NCC(O)c1ccc(O)c(O)c1 (centres unmarked) [ISO, isoproterenol]
- composition of CD4+ TCR-αβ cells and B-cells among total blood lymphocytes [1, 11]: lowers
- numbers of CD34 HSCs in peripheral blood / graft [1, 12]: increases; also recorded: without compromising
- in vitro anti-tumor activity of G-CSF mobilized PBHC grafts [2]: increases
- systolic hypertension [3]: ~30 mmHg
- tachycardia [3]: ~50 bpm
- tolerance to ISO infusion [3]: excellent tolerance
- mobilization of lymphocytes to the circulation [4]: robust mobilization
- composition of NK-cells and TCR-γδ cells among total blood lymphocytes [5, 11]: markedly increases
- Absolute number of B cells in whole blood [5, 13]: 392 cells/ul
- Absolute number of CD3+ T cells in whole blood [5, 13]: 2933 cells/ul
- Absolute number of CD4+ T cells in whole blood [5, 13]: 1835 cells/ul
- Absolute number of CD8+ T cells in whole blood [5, 13]: 795 cells/ul
- Absolute number of CD34+ HSCs in whole blood [5, 13]: 92 cells/ul
- Absolute number of CM CD4+ T cells in whole blood [5, 13]: 298 cells/ul
- Absolute number of CM CD8+ T cells in whole blood [5, 13]: 41 cells/ul
- Absolute number of EM CD4+ T cells in whole blood [5, 13]: 429 cells/ul
- Absolute number of EM CD8+ T cells in whole blood [5, 13]: 342 cells/ul
- Absolute number of EMRA CD4+ T cells in whole blood [5, 13]: 220 cells/ul
- Absolute number of EMRA CD8+ T cells in whole blood [5, 13]: 184 cells/ul
- Absolute number of NK cells in whole blood [5, 13]: 2068 cells/ul
- Absolute number of Naïve CD4+ T cells in whole blood [5, 13]: 886 cells/ul
- Absolute number of Naïve CD8+ T cells in whole blood [5, 13]: 227 cells/ul
- Absolute number of lymphocytes (Lymph.) in whole blood [5, 13]: 6730 cells/ul
- Absolute number of αβ T cells in whole blood [5, 13]: 2253 cells/ul
- Absolute number of γδ T cells in whole blood [5, 13]: 214 cells/ul
- Absolute number of B cells in whole blood ([5]; Pre G-CSF, during ISO infusion): 100 cells/ul
- Absolute number of CD3+ T cells in whole blood ([5]; Pre G-CSF, during ISO infusion): 924 cells/ul
- Absolute number of CD4+ T cells in whole blood ([5]; Pre G-CSF, during ISO infusion): 489 cells/ul
- Absolute number of CD8+ T cells in whole blood ([5]; Pre G-CSF, during ISO infusion): 329 cells/ul
- Absolute number of CD34+ HSCs in whole blood ([5]; Pre G-CSF, during ISO infusion): 6 cells/ul
- Absolute number of CM CD4+ T cells in whole blood ([5]; Pre G-CSF, during ISO infusion): 137 cells/ul
- Absolute number of CM CD8+ T cells in whole blood ([5]; Pre G-CSF, during ISO infusion): 34 cells/ul
- Absolute number of EM CD4+ T cells in whole blood ([5]; Pre G-CSF, during ISO infusion): 80 cells/ul
- Absolute number of EM CD8+ T cells in whole blood ([5]; Pre G-CSF, during ISO infusion): 114 cells/ul
- Absolute number of EMRA CD4+ T cells in whole blood ([5]; Pre G-CSF, during ISO infusion): 13 cells/ul
- Absolute number of EMRA CD8+ T cells in whole blood ([5]; Pre G-CSF, during ISO infusion): 81 cells/ul
- Absolute number of NK cells in whole blood ([5]; Pre G-CSF, during ISO infusion): 778 cells/ul
- Absolute number of Naïve CD4+ T cells in whole blood ([5]; Pre G-CSF, during ISO infusion): 257 cells/ul
- Absolute number of Naïve CD8+ T cells in whole blood ([5]; Pre G-CSF, during ISO infusion): 99 cells/ul
- Absolute number of lymphocytes (Lymph.) in whole blood ([5]; Pre G-CSF, during ISO infusion): 2043 cells/ul
- Absolute number of αβ T cells in whole blood ([5]; Pre G-CSF, during ISO infusion): 830 cells/ul
- Absolute number of γδ T cells in whole blood ([5]; Pre G-CSF, during ISO infusion): 91 cells/ul
- ratio of 'favorable' to 'unfavorable' lymphocyte subtypes in peripheral blood [5, 12]: alters
- safety for infusing healthy subjects [6]: safe

Molecule: CC(C)NCC(O)COc1ccc(COCCOC(C)C)cc1 (centres unmarked) [bisoprolol]
- effects of systemic β-AR activation on graft composition shifts [7]: remained favorably altered
- effects of systemic β-AR activation on the mobilization of VSTs [8]: not
- half-life [9]: 10 to 12 h

Molecule: COc1ccccc1OCCNCC(O)COc1cccc2[nH]c3ccccc3c12 (centres unmarked) [carvedilol]
- half-life [9]: 7 to 10 h

Molecule: CC(C)(C)NCC(O)COc1cccc2c1CC(O)C(O)C2 (centres unmarked) [nadolol]
- effects of systemic β-AR activation on graft composition shifts [7]: not
- effects of systemic β-AR activation on graft composition shifts ([7]; listed as Nadolol): abrogated
- effects of systemic β-AR activation on the mobilization of VSTs [8]: inhibits; also recorded: blocked
- effects of systemic β-AR activation on the mobilization and ex vivo expansion of VSTs and TCR-γδ cells [10]: diminished
- half-life [9]: 14 to 24 h

Molecule: O=C(Nc1c(Cl)cncc1Cl)c1ccc(OC(F)F)c(OCC2CC2)c1 [roflumilast]
- half-life [9]: 15 to 18 h

B1: G-CSF: stem cell mobilization agent; filgrastim (G-CSF), 5 mcg/kg/day for 5 days (protein, chains of the INN, looked up)
chain: MTPLGPASSLPQSFLLKCLEQVRKIQGDGAALQEKLCATYKLCHPEELVLLGHSLGIPWAPLSSCPSQALQLAGCLSQLHSGLFLYQGLLQALEGISPELGPTLDTLQLDVADFATTIWQQMEELGMAPALQPTQGAMPAFASAFQRRAGGVLVASHLQSFLEVSYRVLRHLAQP
- Absolute number of B cells in whole blood ([5]; Post G-CSF, Rest): 456 cells/ul
- Absolute number of CD3+ T cells in whole blood ([5]; Post G-CSF, Rest): 2755 cells/ul
- Absolute number of CD4+ T cells in whole blood ([5]; Post G-CSF, Rest): 1749 cells/ul
- Absolute number of CD8+ T cells in whole blood ([5]; Post G-CSF, Rest): 786 cells/ul
- Absolute number of CD34+ HSCs in whole blood ([5]; Post G-CSF, Rest): 110 cells/ul
- Absolute number of CM CD4+ T cells in whole blood ([5]; Post G-CSF, Rest): 268 cells/ul
- Absolute number of CM CD8+ T cells in whole blood ([5]; Post G-CSF, Rest): 47 cells/ul
- Absolute number of EM CD4+ T cells in whole blood ([5]; Post G-CSF, Rest): 405 cells/ul
- Absolute number of EM CD8+ T cells in whole blood ([5]; Post G-CSF, Rest): 284 cells/ul
- Absolute number of EMRA CD4+ T cells in whole blood ([5]; Post G-CSF, Rest): 216 cells/ul
- Absolute number of EMRA CD8+ T cells in whole blood ([5]; Post G-CSF, Rest): 154 cells/ul
- Absolute number of NK cells in whole blood ([5]; Post G-CSF, Rest): 1158 cells/ul
- Absolute number of Naïve CD4+ T cells in whole blood ([5]; Post G-CSF, Rest): 860 cells/ul
- Absolute number of Naïve CD8+ T cells in whole blood ([5]; Post G-CSF, Rest): 302 cells/ul
- Absolute number of lymphocytes (Lymph.) in whole blood ([5]; Post G-CSF, Rest): 5866 cells/ul
- Absolute number of αβ T cells in whole blood ([5]; Post G-CSF, Rest): 2661 cells/ul
- Absolute number of γδ T cells in whole blood ([5]; Post G-CSF, Rest): 93 cells/ul
